Reference: patent US10752587B2, “Homobispiperidinyl derivatives as liver X receptor beta agonists, compositions and their use” (Merck Sharp & Dohme Corp., priority 2015, dated 2020)

Key:
[1] = molecular target: T1, glutathione-S-transferase (GST) tagged LXRbeta LBD (ligand binding domain) (Homo sapiens, UniProt P55055); assay: LanthaScreen TR-FRET Liver X Receptor Coactivator Assay, co-activator recruitment to LXRbeta LBD; format: biochemical; settings: for Emax: efficacy at max dose, in relation to reference dual agonist T0901317, read-out: LXR beta Activity @ max dose (%); for EC50: potency (Inflection Point, IP), co-activator recruitment to LXRbeta LBD, in relation to T0901317, read-out: LXR beta IP
T1 construct: purchased Invitrogen pv4658.pps
T1 sequence (P55055 222-460 limits assumed): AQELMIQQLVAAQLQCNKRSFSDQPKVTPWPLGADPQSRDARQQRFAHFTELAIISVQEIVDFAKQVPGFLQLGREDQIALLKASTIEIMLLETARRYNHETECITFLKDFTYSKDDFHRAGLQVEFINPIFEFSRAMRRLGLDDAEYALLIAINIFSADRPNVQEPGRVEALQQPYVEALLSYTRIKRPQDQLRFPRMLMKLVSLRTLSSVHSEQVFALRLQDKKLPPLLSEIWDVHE
Method in brief: (§1)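 TR-FRET coactivator recruitment; compound + LBD, then fluorescein-coactivator peptide/Tb-anti-GST Ab mix; RT incubation; IP and Emax vs T0901317.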

[2] = molecular target: T2, glutathione-S-transferase (GST) tagged LXRalpha LBD (ligand binding domain) (Homo sapiens, UniProt Q13133); assay: LanthaScreen TR-FRET Liver X Receptor Coactivator Assay, co-activator recruitment to LXRalpha LBD; format: biochemical; settings: for Emax: efficacy at max dose, in relation to reference dual agonist T0901317, read-out: LXR alpha Activity @ max dose (%); for EC50 / LXR alpha IP (nM): potency (Inflection Point, IP), co-activator recruitment to LXRalpha LBD, in relation to T0901317; for EC50: read-out: LXR alpha IP
T2 construct: purchased Invitrogen pv4655
T2 sequence (Q13133 209-447 limits assumed): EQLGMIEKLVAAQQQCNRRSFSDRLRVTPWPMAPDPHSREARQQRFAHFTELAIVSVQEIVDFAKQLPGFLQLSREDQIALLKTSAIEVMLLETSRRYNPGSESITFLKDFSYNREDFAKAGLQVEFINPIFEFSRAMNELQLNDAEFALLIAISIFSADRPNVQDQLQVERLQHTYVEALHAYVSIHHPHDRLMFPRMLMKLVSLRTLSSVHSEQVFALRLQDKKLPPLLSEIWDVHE
Method in brief: as §1

Emax [1] [%] | EC50 [1] [nM] | Emax [2] [%] | EC50 [2] [nM] | LXR alpha IP (nM) [2] | Structure (SMILES)
76 | 4 | 38 | 32 | – | NC(=O)c1ccc(N2CCC(CC3CCN(C(=O)[C@](O)(c4cccc(Cl)c4)C(F)(F)F)CC3)CC2)cc1Cl [Example 12-5, 2-chloro-4-[4-({1-[(2R)-2-(3-chlorophenyl)-3,3,3-trifluoro-2-hydroxypropanoyl]-piperidin-4-yl}-methyl)piperidin-1-yl]benzamide]
96 | 28 | 36 | 482 | – | CNC(=O)c1ccc(N2CCC(CC3CCN(C(=O)[C@](O)(c4cccc(OC)c4)C(F)(F)C(F)(F)F)CC3)CC2)cc1Cl [Example 7-124, 2-chloro-N-methyl-4-[4-({1-[(2R)-3,3,4,4,4-pentafluoro-2-hydroxy-2-(3-methoxyphenyl)butanoyl]piperidin-4-yl}methyl)piperidin-1-yl]benzamide]
93 | 172 | 37 | 984 | – | O=C(c1ccc(N2CCC(CC3CCN(C(=O)[C@](O)(c4ccccc4)C(F)(F)F)CC3)CC2)cc1Cl)N1CC(F)(F)C1 [Example 4-8, (2R)-3-{4-[(1-{3-chloro-4-[(3,3-difluoroazetidin-1-yl)carbonyl]phenyl}piperidin-4-yl)methyl]piperidin-1-yl}-1,1,1-trifluoro-3-oxo-2-phenylpropan-2-ol]
56 | 179 | 24 | 459 | – | O=C(c1ccc(N2CCC(CC3CCN(C(=O)[C@](O)(c4ccccc4)C(F)(F)F)CC3)CC2)cc1Cl)N1CC[C@@H](CO)C1 [Example 4-4, (2R)-3-(4-{[1-(3-chloro-4-{[(3R)-3-(hydroxymethyl)pyrrolidin-1-yl]carbonyl}phenyl)piperidin-4-yl]methyl}piperidin-1-yl)-1,1,1-trifluoro-3-oxo-2-phenylpropan-2-ol]
112 | 52 | 40 | 1580 | – | CNC(=O)c1ccc(N2CCC(OC3CCN(C(=O)C(O)(c4cccc(Cl)c4)C(F)(F)F)CC3)CC2)cc1Cl (stereo not shown) [Example 7-31, 2-chloro-4-[4-({1-[2-(3-chlorophenyl)-3,3,3-trifluoro-2-hydroxypropanoyl]piperidin-4-yl}oxy)piperidin-1-yl]-N-methylbenzamide]
21 | 236 | 0 | – | NO IP | COc1cccc([C@@](N)(C(=O)N2CCC(CC3CCN(c4ccc(C(=O)N(C)C)c(Cl)n4)CC3)CC2)C(F)(F)F)c1 [Example 7-114, 6-[4-({1-[(2R)-2-amino-3,3,3-trifluoro-2-(3-methoxyphenyl)propanoyl]piperidin-4-yl}methyl)piperidin-1-yl]-2-chloro-N,N-dimethylpyridine-3-carboxamide]
91 | 1430 | 0 | – | NO IP | COc1cccc([C@@](O)(C(=O)N2CCC(CC3CN(c4ccc(C(=O)N(C)C)c(C5CC5)n4)C3)CC2)C(F)(F)F)c1 [Example 7-15, 2-cyclopropyl-N,N-dimethyl-6-[3-({1-[(2R)-3,3,3-trifluoro-2-hydroxy-2-(3-methoxyphenyl)propanoyl]piperidin-4-yl}methyl)azetidin-1-yl]pyridine-3-carboxamide]
119 | 82 | 31 | 1350 | – | CN(C)C(=O)c1ccc(N2CCC(CC3CCN(C(=O)[C@@](O)(c4ccccc4)C(F)(F)F)CC3)CC2)nc1Cl [Example 7-62, 2-chloro-N,N-dimethyl-6-[4-({1-[(2S)-3,3,3-trifluoro-2-hydroxy-2-phenylpropanoyl]piperidin-4-yl}methyl)piperidin-1-yl]pyridine-3-carboxamide]
65 | 66 | 8 | – | NO IP | COc1cccc([C@@](O)(C(=O)N2CCC(CC3(C)CCN(c4ccc(C(=O)N(C)C)c(C)n4)CC3)CC2)C(F)(F)F)c1 [Example 7-16, N,N,2-trimethyl-6-[4-methyl-4-({1-[(2R)-3,3,3-trifluoro-2-hydroxy-2-(3-methoxyphenyl)propanoyl]piperidin-4-yl}methyl)piperidin-1-yl]pyridine-3-carboxamide]
91 | 17 | 32 | 163 | – | CNC(=O)c1ccc(N2CCC(CC3CCN(C(=O)[C@](O)(c4cccc(C(C)C)c4)C(F)(F)F)CC3)CC2)nc1Cl [Example 7-149, 2-chloro-N-methyl-6-{4-[(1-{(2R)-3,3,3-trifluoro-2-hydroxy-2-[3-(1-methylethyl)phenyl]propanoyl}piperidin-4-yl)methyl]piperidin-1-yl}pyridine-3-carboxamide]

The next lines start with the compound.

Structure (SMILES) | Emax [1] [%] | EC50 [1] [nM] | Emax [2] [%] | EC50 [2] [nM] | LXR alpha IP (nM) [2]
CC(C)c1cccc([C@@](O)(C(=O)N2CCC(CC3CCN(c4ccc(C(=O)N(C)C)c(Cl)c4)CC3)CC2)C(F)(F)F)c1 [Example 2-95, 2-chloro-N,N-dimethyl-4-{4-[(1-{(2R)-3,3,3-trifluoro-2-hydroxy-2-[3-(1-methylethyl)phenyl]propanoyl}piperidin-4-yl)methyl]piperidin-1-yl}benzamide] | 50 | 6 | 15 | 341 | –
CN(C)C(=O)c1ccc(N2CCC(CC3CCN(C(=O)C(O)(c4cccc5ccccc45)C(F)(F)F)CC3)CC2)cc1Cl (stereo not shown) [Example 2-168, 2-chloro-N,N-dimethyl-4-(4-{[1-(3,3,3-trifluoro-2-hydroxy-2-naphthalen-1-ylpropanoyl)piperidin-4-yl]methyl}piperidin-1-yl)benzamide] | 21 | 58 | 0 | – | NO IP
CN(C)C(=O)c1ccc(N2CCC(CC3(C)CCN(C(=O)[C@](O)(c4cc(F)cc(Cl)c4)C(F)(F)F)CC3)CC2)cc1Cl [Example 2-54, 2-chloro-4-[4-({1-[(2R)-2-(3-chloro-5-fluorophenyl)-3,3,3-trifluoro-2-hydroxy-propanoyl]-4-methylpiperidin-4-yl}methyl)piperidin-1-yl]-N,N-dimethyl-benzamide] | 79 | 4 | 23 | 38 | –
CN(C)C(=O)c1ccc(N2CCC(CC3CCN(C(=O)[C@](O)(c4cccc(Cl)c4)C(F)(F)F)CC3)CC2)cc1 [Example 2-131, 4-[4-({1-[(2R)-2-(3-chloro-phenyl)-3,3,3-trifluoro-2-hydroxy-propanoyl]piperidin-4-yl}methyl)piperidin-1-yl]-N,N-dimethyl-benzamide] | 59 | 53 | 10 | – | NO IP
COc1cc(F)cc([C@@](O)(C(=O)N2CC(CC3CCN(c4ccc(C(=O)N(C)C)c(Cl)c4)CC3)C2)C(F)(F)F)c1 [Example 2-61, 2-chloro-N,N-dimethyl-4-[4-({1-[(2R)-3,3,3-trifluoro-2-(3-fluoro-5-methoxyphenyl)-2-hydroxy-propanoyl]azetidin-3-yl}methyl)piperidin-1-yl]benzamide] | 74 | 7 | 21 | 277 | –
CN(C)C(=O)c1ccc(N2CCC(CC3CN(C(=O)C(O)(c4cccc(Cl)c4)C(F)(F)F)C3)CC2)cc1Cl (stereo not shown) [Example 2-65, 2-chloro-4-[4-({1-[2-(3-chlorophenyl)-3,3,3-trifluoro-2-hydroxy-propanoyl]azetidin-3-yl}methyl)piperidin-1-yl]-N,N-dimethyl-benzamide] | 89 | 17 | 35 | 694 | –
CN(C)C(=O)c1ccc(N2CCC(CC3CCN(C(=O)[C@](O)(c4cccc(N(C)C)c4)C(F)(F)F)CC3)CC2)cc1Cl [Example 2-98] | 20 | 8 | 0 | – | NO IP
CCc1cccc([C@@](O)(C(=O)N2CCC(CC3CCN(c4ccc(C(=O)N(C)C)cc4)CC3)CC2)C(F)(F)F)c1 [Example 2-141, 4-[4-({1-[(2R)-2-(3-ethyl-phenyl)-3,3,3-trifluoro-2-hydroxy-propanoyl]piperidin-4-yl}methyl)piperidin-1-yl]-N,N-dimethyl-benzamide] | 51 | 74 | 12 | – | NO IP
COc1cccc([C@@](O)(C(=O)N2CCC(CC3CCN(c4ccc(C(=O)N(C)C)c(C)c4)CC3)CC2)C(F)(F)F)c1 [Example 2-158, N,N,2-trimethyl-4-[4-({1-[(2R)-3,3,3-trifluoro-2-hydroxy-2-(3-methoxyphenyl)propanoyl]piperidin-4-yl}methyl)piperidin-1-yl]benzamide] | 44 | 20 | 6 | – | NO IP
